Measured values: PubChem BioAssay AID1918936 (Molecular Pharmacology Branch, DTP, NCI, 2023)
Values joined by “and” are separate entries in the source; they are usually repeats but may differ in a detail not shown here. Equal values may be shown once. Each block holds one compound with its values, some of them ahead of it.

Test system: 349418-098-R-PDC complex spheroid viability
Assay: Anticancer human tumor 349418-098-R-PDC patient-derived lung adenocarcinoma cell line growth inhibition
Conditions: for viability, T/C: stronger effect = lower value
Method in brief: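 Multicellular complex spheroids of tumor cells with human endothelial cells (HUVEC) and mesenchymal stem cells; the LSD1 inhibitor iadademstat was combined with standard-of-care or investigational agents. Top concentration at or near clinical Cmax, half-log dilutions; final DMSO ≤0.25%.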

[1] = curve of first compound, second compound 0.1 µM
[2] = curve of first compound, second compound 0.316 µM
[3] = curve of first compound, second compound 1 µM
[4] = curve of first compound, second compound 3.16 µM
[5] = curve of first compound, second compound 10 µM
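Also: spheroids exposed to agents for seven days before readout.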
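For viability, T/C in this document: 100% = DMSO vehicle control wells.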

Compound: O=C(C=Cc1cccc(S(=O)(=O)Nc2ccccc2)c1)NO + NC1CC1c1ccc(-c2cccc(O)c2)cc1
IC50 [1]: 54.8 nM
IC50 [2]: 54.7 nM
IC50 [3]: 53.8 nM
IC50 [4]: 59.5 nM
IC50 [5]: 36.4 nM
viability, T/C (second compound 0.1 µM, first compound 0.00949 µM): 76%
viability, T/C (second compound 0.1 µM, first compound 0.03 µM): 70%
viability, T/C (second compound 0.1 µM, first compound 0.0949 µM): 20.3%
viability, T/C (second compound 0.1 µM, first compound 0.3 µM): 3.17%
viability, T/C (second compound 0.1 µM, first compound 0.949 µM): 0.96%
viability, T/C (second compound 0.1 µM, first compound 3 µM): 103%
viability, T/C (second compound 0.316 µM, first compound 0.00949 µM): 76.8%
viability, T/C (second compound 0.316 µM, first compound 0.03 µM): 70.2%
viability, T/C (second compound 0.316 µM, first compound 0.0949 µM): 19.2%
viability, T/C (second compound 0.316 µM, first compound 0.3 µM): 3.03%
viability, T/C (second compound 0.316 µM, first compound 0.949 µM): 0.63%
viability, T/C (second compound 0.316 µM, first compound 3 µM): 103%
viability, T/C (second compound 1 µM, first compound 0.00949 µM): 83.1%
viability, T/C (second compound 1 µM, first compound 0.03 µM): 68.7%
viability, T/C (second compound 1 µM, first compound 0.0949 µM): 20.3%
viability, T/C (second compound 1 µM, first compound 0.3 µM): 3.41%
viability, T/C (second compound 1 µM, first compound 0.949 µM): 0.58%
viability, T/C (second compound 1 µM, first compound 3 µM): 103%
viability, T/C (second compound 3.16 µM, first compound 0.00949 µM): 77.7%
viability, T/C (second compound 3.16 µM, first compound 0.03 µM): 78.5%
viability, T/C (second compound 3.16 µM, first compound 0.0949 µM): 22.2%
viability, T/C (second compound 3.16 µM, first compound 0.3 µM): 3.57%
viability, T/C (second compound 3.16 µM, first compound 0.949 µM): 0.78%
viability, T/C (second compound 3.16 µM, first compound 3 µM): 96.6%
viability, T/C (second compound 10 µM, first compound 0.00949 µM): 81.5%
viability, T/C (second compound 10 µM, first compound 0.03 µM): 56.3%
viability, T/C (second compound 10 µM, first compound 0.0949 µM): 14.6%
viability, T/C (second compound 10 µM, first compound 0.3 µM): 3.03%
viability, T/C (second compound 10 µM, first compound 0.949 µM): 0.44%
viability, T/C (second compound 10 µM, first compound 3 µM): 58.3%

IC50 (curve of compound): > 100 nM
Compound: Cn1ncnc1C1c2n[nH]c(=O)c3cc(F)cc(c23)NC1c1ccc(F)cc1 (configuration not stated)
viability, T/C (compound 0.000316 µM): 97.2% and 97.6%
viability, T/C (compound 0.001 µM): 93.6% and 102%
viability, T/C (compound 0.00316 µM): 101% and 98.2%
viability, T/C (compound 0.01 µM): 94.4% and 94.1%
viability, T/C (compound 0.0316 µM): 97.8% and 78.5%
viability, T/C (compound 0.1 µM): 89% and 77.8%

Compound: Nc1ncn(C2CC(O)C(CO)O2)c(=O)n1 (configuration not stated) + NC1CCC(NC2CC2c2ccccc2)CC1
IC50 [1]: 24.8 nM
IC50 [2]: 46.5 nM
IC50 [3]: 27.4 nM
IC50 [4]: 19.4 nM
IC50 [5]: 11.1 nM
viability, T/C (second compound 0.1 µM, first compound 0.00316 µM): 78%
viability, T/C (second compound 0.1 µM, first compound 0.01 µM): 75.6%
viability, T/C (second compound 0.1 µM, first compound 0.0316 µM): 43%
viability, T/C (second compound 0.1 µM, first compound 0.1 µM): 28.6%
viability, T/C (second compound 0.1 µM, first compound 0.316 µM): 26.1%
viability, T/C (second compound 0.1 µM, first compound 1 µM): 24.2%
viability, T/C (second compound 0.316 µM, first compound 0.00316 µM): 72.8%
viability, T/C (second compound 0.316 µM, first compound 0.01 µM): 75.7%
viability, T/C (second compound 0.316 µM, first compound 0.0316 µM): 55.2%
viability, T/C (second compound 0.316 µM, first compound 0.1 µM): 36.7%
viability, T/C (second compound 0.316 µM, first compound 0.316 µM): 25%
viability, T/C (second compound 0.316 µM, first compound 1 µM): 22.7%
viability, T/C (second compound 1 µM, first compound 0.00316 µM): 89.5%
viability, T/C (second compound 1 µM, first compound 0.01 µM): 73.5%
viability, T/C (second compound 1 µM, first compound 0.0316 µM): 46%
viability, T/C (second compound 1 µM, first compound 0.1 µM): 31.4%
viability, T/C (second compound 1 µM, first compound 0.316 µM): 27.8%
viability, T/C (second compound 1 µM, first compound 1 µM): 23.3%
viability, T/C (second compound 3.16 µM, first compound 0.00316 µM): 83.2%
viability, T/C (second compound 3.16 µM, first compound 0.01 µM): 56.7%
viability, T/C (second compound 3.16 µM, first compound 0.0316 µM): 45.3%
viability, T/C (second compound 3.16 µM, first compound 0.1 µM): 34%
viability, T/C (second compound 3.16 µM, first compound 0.316 µM): 23.7%
viability, T/C (second compound 3.16 µM, first compound 1 µM): 21.9%
viability, T/C (second compound 10 µM, first compound 0.00316 µM): 80.9%
viability, T/C (second compound 10 µM, first compound 0.01 µM): 50.5%
viability, T/C (second compound 10 µM, first compound 0.0316 µM): 36%
viability, T/C (second compound 10 µM, first compound 0.1 µM): 27.5%
viability, T/C (second compound 10 µM, first compound 0.316 µM): 23.3%
viability, T/C (second compound 10 µM, first compound 1 µM): 20.4%
